Measurements reported in ChEMBL document CHEMBL1201862, “PubChem BioAssay data set” (2004).
Where “and” joins values, the source holds several entries; their conditions need not be identical. Equal entries are not always repeated.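 Dose response: 5 concentrations. Exposure: 48 h. Format: 96-well plates. Endpoint: linear interpolation; highest concentration if not reached. GI50 is the concentration that inhibits growth by half.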 Calls of active or inactive are those of the source. No stated cut-off is given here; in the data, active = GI50 up to about 1.1 µM and inactive = higher.

Legend:
Test in all cases: DTP human tumour cell line panel, 48 h
786-0 = test system: 786-0
M14 = test system: M14
MDA-MB-435 = test system: MDA-MB-435
NCI-H226 = test system: NCI-H226
A498 = test system: A498
MCF7 = test system: MCF7
SNB-19 = test system: SNB-19
UACC-62 = test system: UACC-62
Malme-3M = test system: Malme-3M
HCT-116 = test system: HCT-116
NCI-H23 = test system: NCI-H23
T47D = test system: T47D
LOX IMVI = test system: LOX IMVI
RXF 393 = test system: RXF 393
HOP-92 = test system: HOP-92
OVCAR-8 = test system: OVCAR-8
NCI-H460 = test system: NCI-H460
OVCAR-5 = test system: OVCAR-5
SK-MEL-2 = test system: SK-MEL-2
UO-31 = test system: UO-31

**Q.** For `CC(C)(C)c1cc2c(OC/C=C/c3ccccc3)c(c1)Cc1cc(C(C#N)(OC/C=C/c3ccccc3)OC/C=C/c3ccccc3)cc(c1OC/C=C\c1ccccc1)Cc1cc(C(C)(C)C)cc(c1OC/C=C/c1ccccc1)Cc1cc(C(C#N)(OC/C=C\c3ccccc3)OC/C=C/c3ccccc3)cc(c1OC/C=C\c1ccccc1)C2` (stereo not given), which GI50 (786-0) is on record?
**A.** > 100 µM (inactive)

**Q.** And the GI50 (M14)?
**A.** 36.6 µM (inactive)

**Q.** And the GI50 (MDA-MB-435)?
**A.** > 100 µM (inactive)

**Q.** And the GI50 (NCI-H226)?
**A.** > 100 µM (inactive)

**Q.** What about the GI50 (A498) of the same compound?
**A.** > 100 µM (inactive)

**Q.** And the GI50 (MCF7)?
**A.** > 100 µM (inactive)

**Q.** And the GI50 (SNB-19)?
**A.** > 100 µM (inactive)

**Q.** And the GI50 (UACC-62)?
**A.** > 100 µM (inactive)

**Q.** And the GI50 (Malme-3M)?
**A.** 83.4 µM (inactive)

**Q.** What about the GI50 (HCT-116) of the same compound?
**A.** > 100 µM (inactive)

**Q.** And the GI50 (NCI-H23)?
**A.** > 100 µM (inactive)

**Q.** And the GI50 (T47D)?
**A.** > 100 µM (inactive)

**Q.** And the GI50 (LOX IMVI)?
**A.** 30.1 µM (inactive)

**Q.** And the GI50 (RXF 393)?
**A.** > 100 µM (inactive)

**Q.** And the GI50 (HOP-92)?
**A.** 95.5 µM (inactive)

**Q.** And the GI50 (OVCAR-8)?
**A.** > 100 µM (inactive)

**Q.** What about the GI50 (NCI-H460) of the same compound?
**A.** > 100 µM (inactive)

**Q.** And the GI50 (OVCAR-5)?
**A.** > 100 µM (inactive)

**Q.** And the GI50 (SK-MEL-2)?
**A.** > 100 µM (inactive)

**Q.** What about the GI50 (UO-31) of the same compound?
**A.** > 100 µM (inactive)

**Q.** For `CCNC(=S)/N=c1\sc(NCC)nc2sc3c(c12)CCN(N1CCc2c(sc4nc(NCC)s/c(=N\C(=S)NCC)c24)C1)C3`, which GI50 (786-0) is on record?
**A.** 26.6 µM (inactive)

**Q.** What about the GI50 (M14) of the same compound?
**A.** 46.5 µM (inactive)

**Q.** What about the GI50 (MDA-MB-435) of the same compound?
**A.** 97.5 µM (inactive)

**Q.** And the GI50 (NCI-H226)?
**A.** 24.9 µM (inactive)

**Q.** And the GI50 (A498)?
**A.** 54 µM (inactive)

**Q.** What about the GI50 (MCF7) of the same compound?
**A.** > 100 µM (inactive)

**Q.** What about the GI50 (SNB-19) of the same compound?
**A.** 74 µM (inactive)

**Q.** And the GI50 (UACC-62)?
**A.** > 100 µM (inactive)

**Q.** And the GI50 (Malme-3M)?
**A.** > 100 µM (inactive)

**Q.** What about the GI50 (HCT-116) of the same compound?
**A.** 19.5 µM (inactive)

**Q.** And the GI50 (NCI-H23)?
**A.** > 100 µM (inactive)

**Q.** What about the GI50 (T47D) of the same compound?
**A.** 42.4 µM (inactive)

**Q.** What about the GI50 (LOX IMVI) of the same compound?
**A.** 26 µM (inactive)

**Q.** And the GI50 (RXF 393)?
**A.** 8.93 µM (inactive)

**Q.** What about the GI50 (HOP-92) of the same compound?
**A.** 5.31 µM (inactive)

**Q.** What about the GI50 (OVCAR-8) of the same compound?
**A.** 60.4 µM (inactive)

**Q.** And the GI50 (NCI-H460)?
**A.** 76.6 µM (inactive)

**Q.** And the GI50 (OVCAR-5)?
**A.** > 100 µM (inactive)

**Q.** What about the GI50 (SK-MEL-2) of the same compound?
**A.** > 100 µM (inactive)

**Q.** What about the GI50 (UO-31) of the same compound?
**A.** > 100 µM (inactive)

**Q.** Which results are given for `NCCOCC(N)C(=O)O` (stereo not given)?
**A.** GI50 (786-0): > 100 µM (inactive); GI50 (M14): > 100 µM (inactive); GI50 (MDA-MB-435): > 100 µM (inactive); GI50 (NCI-H226): > 100 µM (inactive); GI50 (A498): > 100 µM (inactive); GI50 (MCF7): > 100 µM (inactive); GI50 (SNB-19): > 100 µM (inactive); GI50 (UACC-62): > 100 µM (inactive); GI50 (Malme-3M): > 100 µM (inactive); GI50 (HCT-116): > 100 µM (inactive); GI50 (NCI-H23): > 100 µM (inactive); GI50 (T47D): > 100 µM (inactive); GI50 (LOX IMVI): > 100 µM (inactive) and > 77.4 µM (inactive); GI50 (RXF 393): > 100 µM (inactive); GI50 (HOP-92): > 100 µM (inactive); GI50 (OVCAR-8): > 100 µM (inactive); GI50 (NCI-H460): > 100 µM (inactive); GI50 (OVCAR-5): > 100 µM (inactive); GI50 (SK-MEL-2): > 100 µM (inactive); GI50 (UO-31): > 100 µM (inactive)

**Q.** With `COC(=O)/N=[N+](\[O-])C(c1ccc(OC)cc1)C1CCCCC1` (stereo not given) as the compound, how does the GI50 (786-0) read?
**A.** 3.82 µM (inactive)

**Q.** And the GI50 (M14)?
**A.** 2.99 µM (inactive)

**Q.** And the GI50 (MDA-MB-435)?
**A.** 5.01 µM (inactive)

**Q.** And the GI50 (NCI-H226)?
**A.** 5.16 µM (inactive)

**Q.** And the GI50 (A498)?
**A.** 6.67 µM (inactive)

**Q.** And the GI50 (MCF7)?
**A.** 7.35 µM (inactive)

**Q.** And the GI50 (SNB-19)?
**A.** 9.53 µM (inactive)

**Q.** And the GI50 (UACC-62)?
**A.** 6.03 µM (inactive)

**Q.** And the GI50 (Malme-3M)?
**A.** 2.02 µM (inactive)

**Q.** What about the GI50 (HCT-116) of the same compound?
**A.** 0.652 µM (active)

**Q.** What about the GI50 (NCI-H23) of the same compound?
**A.** 0.664 µM (active)

**Q.** What about the GI50 (T47D) of the same compound?
**A.** 0.303 µM (active)

**Q.** And the GI50 (LOX IMVI)?
**A.** 3.33 µM (inactive)

**Q.** And the GI50 (RXF 393)?
**A.** 9.18 µM (inactive)

**Q.** What about the GI50 (HOP-92) of the same compound?
**A.** 5.85 µM (inactive)

**Q.** What about the GI50 (OVCAR-8) of the same compound?
**A.** 4.75 µM (inactive)

**Q.** What about the GI50 (NCI-H460) of the same compound?
**A.** 1.39 µM (inactive)

**Q.** What about the GI50 (OVCAR-5) of the same compound?
**A.** 2.58 µM (inactive)

**Q.** What about the GI50 (SK-MEL-2) of the same compound?
**A.** 13.3 µM (inactive)

**Q.** And the GI50 (UO-31)?
**A.** 5.82 µM (inactive)
